Source: publication PMC10472371, “Discovery of E2730, a novel selective uncompetitive GAT1 inhibitor, as a candidate for anti‐seizure medication” (Epilepsia Open, 2023)

Assays:
Scn1a+/- mice = experiment: Hyperthermia-induced seizures in Scn1a+/- mice (Dravet syndrome model); format: in vivo, mouse
Experimental: Scn1a heterozygous mutant (Scn1a ^+/−) mice, a model of Dravet Syndrome (DS), and the littermate wild‐type (Scn1a ^+/+) mice (male, 24–28 days postnatal; Jackson Laboratory, US) received E2730 (10, 20 mg/kg) or vehicle orally 1 hour before hyperthermia stimulation. A rectal temperature probe (Physitemp, NJ) was fitted at 50 minutes post‐treatment, and mice were acclimated to the probe and test chamber for 10 minutes. At 1‐hour post‐treatment, core body temperature was elevated by a heat lamp connected to a feedback temperature controller (Physitemp) by 0.5°C every 2 minutes until a maximum of 42.5°C was reached. The threshold body temperatures for generalized tonic–clonic seizures were recorded for each mouse. The cut‐off time was set as 180 seconds.

[1] = target: T1, hGABAAR (containing α1, β3, and γ2 subunits) (Homo sapiens, UniProt P14867+P18507+P28472); experiment: GABA-induced current in hGABAAR-expressing HEK-293 cells, whole-cell patch-clamp; format: cell-based; details: up to 100 μM
T1 construct: expressed in transfected cells; host or cells: HEK-293
Experimental: Data represent the mean ± SEM of 3 independent experiments. Control response is GABA (13 μM)-induced current amplitude. […] Cells in voltage clamp were maintained at -80 mV throughout the experiments following the voltage protocol.

T1 sequence (P14867 28-456): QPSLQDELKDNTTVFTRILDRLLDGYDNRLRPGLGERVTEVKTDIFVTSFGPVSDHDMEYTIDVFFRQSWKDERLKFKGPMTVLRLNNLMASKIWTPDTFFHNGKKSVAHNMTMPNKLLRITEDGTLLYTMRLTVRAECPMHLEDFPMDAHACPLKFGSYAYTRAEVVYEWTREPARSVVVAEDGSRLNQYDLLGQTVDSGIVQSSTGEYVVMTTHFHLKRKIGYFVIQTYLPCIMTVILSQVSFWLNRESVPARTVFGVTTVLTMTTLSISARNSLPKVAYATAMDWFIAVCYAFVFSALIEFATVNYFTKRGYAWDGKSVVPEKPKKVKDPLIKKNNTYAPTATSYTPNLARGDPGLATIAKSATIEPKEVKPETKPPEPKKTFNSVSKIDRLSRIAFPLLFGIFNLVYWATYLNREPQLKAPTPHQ
T1 sequence (P28472 26-473): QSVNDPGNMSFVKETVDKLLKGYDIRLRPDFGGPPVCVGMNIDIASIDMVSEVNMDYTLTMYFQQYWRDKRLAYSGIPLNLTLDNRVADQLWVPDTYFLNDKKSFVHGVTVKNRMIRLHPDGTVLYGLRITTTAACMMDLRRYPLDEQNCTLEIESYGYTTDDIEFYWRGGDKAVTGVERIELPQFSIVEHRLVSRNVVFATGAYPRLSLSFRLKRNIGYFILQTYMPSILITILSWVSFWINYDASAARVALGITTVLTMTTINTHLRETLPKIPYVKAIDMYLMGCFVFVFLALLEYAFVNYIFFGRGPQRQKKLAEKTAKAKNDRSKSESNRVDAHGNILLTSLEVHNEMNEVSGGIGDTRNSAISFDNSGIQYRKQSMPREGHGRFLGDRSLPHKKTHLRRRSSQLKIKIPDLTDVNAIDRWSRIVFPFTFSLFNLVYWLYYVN
T1 sequence (P18507 40-475): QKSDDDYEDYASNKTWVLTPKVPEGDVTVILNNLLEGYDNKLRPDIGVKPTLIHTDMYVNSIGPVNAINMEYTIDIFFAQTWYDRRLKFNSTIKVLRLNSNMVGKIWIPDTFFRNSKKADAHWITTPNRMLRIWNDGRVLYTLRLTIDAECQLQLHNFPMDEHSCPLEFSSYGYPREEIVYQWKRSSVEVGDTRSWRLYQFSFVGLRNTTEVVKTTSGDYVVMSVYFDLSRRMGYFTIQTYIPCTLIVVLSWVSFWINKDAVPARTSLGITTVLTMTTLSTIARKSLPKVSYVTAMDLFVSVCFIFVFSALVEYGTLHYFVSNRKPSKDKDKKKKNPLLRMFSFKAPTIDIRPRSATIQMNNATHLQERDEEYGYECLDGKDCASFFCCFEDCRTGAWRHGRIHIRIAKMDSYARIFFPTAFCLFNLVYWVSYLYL

NS(=O)(=O)N[C@H]1c2c(F)cc(F)cc2CC1(F)F [E2730]
seizure occurrence in littermate WT (Scn1a+/+) mice (Scn1a+/- mice; 20 mg/kg, maximum temperature of 42.5°C): No seizures occurred
median threshold body temperature for generalized tonic-clonic seizures (Scn1a+/- mice; Scn1a+/- mice, 10 mg/kg oral): 41.2 °C
median threshold body temperature for generalized tonic-clonic seizures (Scn1a+/- mice; Scn1a+/- mice, 20 mg/kg oral): 42.4 °C
Minimum effective dose, hyperthermia-induced seizures (Scn1a+/- mice; Scn1a+/- mice, oral, footnote a: minimum effective dose): 10 mg/kg
effect on GABA-induced current [1]: did not directly affect
